Measured values taken from PubChem BioAssay (NCI).
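These data come from cells grown in 96-well plates and exposed to compound for 48 hours at five concentrations. At the TGI there is no net growth.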

Experiments:
Experiment in all cases: DTP human tumour cell line panel, 48 h
786-0 renal = system: 786-0 renal
A498 renal = system: A498 renal
A549 NSCLC = system: A549 NSCLC
ACHN renal = system: ACHN renal
BT-549 breast = system: BT-549 breast
CAKI-1 renal = system: CAKI-1 renal
CCRF-CEM leukemia = system: CCRF-CEM leukemia
COLO 205 colon = system: COLO 205 colon
DU-145 prostate = system: DU-145 prostate
EKVX NSCLC = system: EKVX NSCLC
HCT-116 colon = system: HCT-116 colon
HCT-15 colon = system: HCT-15 colon
HL-60(TB) leukemia = system: HL-60(TB) leukemia
HOP-62 NSCLC = system: HOP-62 NSCLC
HOP-92 NSCLC = system: HOP-92 NSCLC
HS 578T breast = system: HS 578T breast
HT29 colon = system: HT29 colon
IGROV1 ovarian = system: IGROV1 ovarian
K-562 leukemia = system: K-562 leukemia
KM12 colon = system: KM12 colon
LOX IMVI melanoma = system: LOX IMVI melanoma
M14 melanoma = system: M14 melanoma
MALME-3M melanoma = system: MALME-3M melanoma
MCF7 breast = system: MCF7 breast
MDA-MB-231 breast = system: MDA-MB-231 breast
MDA-MB-435 = system: MDA-MB-435
MDA-N = system: MDA-N
MOLT-4 leukemia = system: MOLT-4 leukemia
NCI-H226 lung = system: NCI-H226 lung
NCI-H23 lung = system: NCI-H23 lung
NCI/ADR-RES ovarian = system: NCI/ADR-RES ovarian
OVCAR-3 ovarian = system: OVCAR-3 ovarian
OVCAR-4 ovarian = system: OVCAR-4 ovarian
OVCAR-5 ovarian = system: OVCAR-5 ovarian
OVCAR-8 ovarian = system: OVCAR-8 ovarian
PC-3 prostate = system: PC-3 prostate
RPMI-8226 leukemia = system: RPMI-8226 leukemia
RXF 393 renal = system: RXF 393 renal
SF-268 CNS = system: SF-268 CNS
SF-295 CNS = system: SF-295 CNS
SF-539 CNS = system: SF-539 CNS
SK-MEL-2 melanoma = system: SK-MEL-2 melanoma
SK-MEL-28 melanoma = system: SK-MEL-28 melanoma
SK-MEL-5 melanoma = system: SK-MEL-5 melanoma
SK-OV-3 ovarian = system: SK-OV-3 ovarian
SN12C renal = system: SN12C renal
SNB-19 CNS = system: SNB-19 CNS
SR leukemia = system: SR leukemia
SW-620 colon = system: SW-620 colon
T-47D breast = system: T-47D breast
TK-10 renal = system: TK-10 renal
U251 CNS = system: U251 CNS
UACC-257 melanoma = system: UACC-257 melanoma
UACC-62 melanoma = system: UACC-62 melanoma
UO-31 renal = system: UO-31 renal
HCC-2998 colon = system: HCC-2998 colon
NCI-H460 lung = system: NCI-H460 lung
NCI-H522 lung = system: NCI-H522 lung
SNB-75 CNS = system: SNB-75 CNS

**Q.** With COC(=O)C12OC3CO[Si](C(C)C)(C(C)C)O[Si](C(C)C)(C(C)C)OC3C1Oc1nc(=O)ccn12 (stereo not drawn) as the molecule, how does the TGI (786-0 renal) read?
**A.** 31.6 µM

**Q.** What about the TGI (A498 renal) of the same molecule?
**A.** 38.8 µM

**Q.** And the TGI (A549 NSCLC)?
**A.** 28.6 µM

**Q.** And the TGI (ACHN renal)?
**A.** 32.2 µM

**Q.** And the TGI (BT-549 breast)?
**A.** 32.1 µM

**Q.** And the TGI (CAKI-1 renal)?
**A.** 31.7 µM

**Q.** And the TGI (CCRF-CEM leukemia)?
**A.** 41 µM

**Q.** And the TGI (COLO 205 colon)?
**A.** 32.9 µM

**Q.** What about the TGI (DU-145 prostate) of the same molecule?
**A.** 32.5 µM

**Q.** And the TGI (EKVX NSCLC)?
**A.** 30.7 µM

**Q.** What about the TGI (HCT-116 colon) of the same molecule?
**A.** 29.6 µM

**Q.** What about the TGI (HCT-15 colon) of the same molecule?
**A.** 30.1 µM

**Q.** What about the TGI (HL-60(TB) leukemia) of the same molecule?
**A.** 72.9 µM

**Q.** What about the TGI (HOP-62 NSCLC) of the same molecule?
**A.** 32.2 µM

**Q.** What about the TGI (HOP-92 NSCLC) of the same molecule?
**A.** 27.7 µM

**Q.** What about the TGI (HS 578T breast) of the same molecule?
**A.** 7.3 µM

**Q.** And the TGI (HT29 colon)?
**A.** 29.3 µM

**Q.** And the TGI (IGROV1 ovarian)?
**A.** 24 µM

**Q.** What about the TGI (K-562 leukemia) of the same molecule?
**A.** 30.6 µM

**Q.** What about the TGI (KM12 colon) of the same molecule?
**A.** 29.2 µM

**Q.** What about the TGI (LOX IMVI melanoma) of the same molecule?
**A.** 31.6 µM

**Q.** What about the TGI (M14 melanoma) of the same molecule?
**A.** 32.3 µM

**Q.** What about the TGI (MALME-3M melanoma) of the same molecule?
**A.** 28.1 µM

**Q.** What about the TGI (MCF7 breast) of the same molecule?
**A.** 29.4 µM

**Q.** What about the TGI (MDA-MB-231 breast) of the same molecule?
**A.** 29.5 µM

**Q.** What about the TGI (MDA-MB-435) of the same molecule?
**A.** 31.3 µM

**Q.** What about the TGI (MDA-N) of the same molecule?
**A.** 32.7 µM

**Q.** And the TGI (MOLT-4 leukemia)?
**A.** 30.8 µM

**Q.** And the TGI (NCI-H226 lung)?
**A.** 30.4 µM

**Q.** And the TGI (NCI-H23 lung)?
**A.** 29 µM

**Q.** And the TGI (NCI/ADR-RES ovarian)?
**A.** 29.2 µM

**Q.** And the TGI (OVCAR-3 ovarian)?
**A.** 29.3 µM

**Q.** And the TGI (OVCAR-4 ovarian)?
**A.** 30.8 µM

**Q.** And the TGI (OVCAR-5 ovarian)?
**A.** 28.6 µM

**Q.** And the TGI (OVCAR-8 ovarian)?
**A.** 29 µM

**Q.** And the TGI (PC-3 prostate)?
**A.** 29.2 µM

**Q.** And the TGI (RPMI-8226 leukemia)?
**A.** 30.8 µM

**Q.** What about the TGI (RXF 393 renal) of the same molecule?
**A.** 30.6 µM

**Q.** What about the TGI (SF-268 CNS) of the same molecule?
**A.** 24.6 µM

**Q.** What about the TGI (SF-295 CNS) of the same molecule?
**A.** 29.6 µM

**Q.** What about the TGI (SF-539 CNS) of the same molecule?
**A.** 30.2 µM

**Q.** What about the TGI (SK-MEL-2 melanoma) of the same molecule?
**A.** 31.6 µM

**Q.** What about the TGI (SK-MEL-28 melanoma) of the same molecule?
**A.** 30.4 µM

**Q.** What about the TGI (SK-MEL-5 melanoma) of the same molecule?
**A.** 29.7 µM

**Q.** And the TGI (SK-OV-3 ovarian)?
**A.** 31.1 µM

**Q.** And the TGI (SN12C renal)?
**A.** 32 µM

**Q.** What about the TGI (SNB-19 CNS) of the same molecule?
**A.** 31.2 µM

**Q.** And the TGI (SR leukemia)?
**A.** 32 µM

**Q.** And the TGI (SW-620 colon)?
**A.** 30 µM

**Q.** And the TGI (T-47D breast)?
**A.** 33 µM

**Q.** What about the TGI (TK-10 renal) of the same molecule?
**A.** 30.9 µM

**Q.** And the TGI (U251 CNS)?
**A.** 29.6 µM

**Q.** What about the TGI (UACC-257 melanoma) of the same molecule?
**A.** 29.1 µM

**Q.** What about the TGI (UACC-62 melanoma) of the same molecule?
**A.** 27.4 µM

**Q.** What about the TGI (UO-31 renal) of the same molecule?
**A.** 29.9 µM

**Q.** Which results are given for CC(C)N(C(C)C)S(=O)(=O)C[C@]12CC[C@H](CC13OCC(CS(=O)(=O)c1ccccc1)O3)C2(C)C (stereo partly drawn)?
**A.** TGI (786-0 renal): > 100 µM; TGI (A498 renal): > 100 µM; TGI (A549 NSCLC): > 100 µM; TGI (ACHN renal): > 100 µM; TGI (BT-549 breast): > 100 µM; TGI (CAKI-1 renal): > 100 µM; TGI (CCRF-CEM leukemia): > 100 µM; TGI (COLO 205 colon): 34.8 µM; TGI (DU-145 prostate): > 100 µM; TGI (EKVX NSCLC): > 100 µM; TGI (HCC-2998 colon): > 100 µM; TGI (HCT-116 colon): > 100 µM; TGI (HCT-15 colon): > 100 µM; TGI (HL-60(TB) leukemia): 61.2 µM; TGI (HOP-62 NSCLC): > 100 µM; TGI (HOP-92 NSCLC): > 75.3 µM; TGI (HS 578T breast): > 100 µM; TGI (HT29 colon): > 100 µM; TGI (IGROV1 ovarian): > 59.5 µM; TGI (K-562 leukemia): > 100 µM; TGI (KM12 colon): > 100 µM; TGI (LOX IMVI melanoma): > 100 µM; TGI (M14 melanoma): > 100 µM; TGI (MALME-3M melanoma): > 100 µM; TGI (MCF7 breast): > 100 µM; TGI (MDA-MB-231 breast): > 100 µM; TGI (MDA-MB-435): > 100 µM; TGI (MDA-N): > 100 µM; TGI (MOLT-4 leukemia): 45.7 µM; TGI (NCI-H226 lung): > 100 µM; TGI (NCI-H23 lung): > 100 µM; TGI (NCI-H460 lung): > 100 µM; TGI (NCI-H522 lung): > 100 µM; TGI (NCI/ADR-RES ovarian): > 100 µM; TGI (OVCAR-3 ovarian): > 70.8 µM; TGI (OVCAR-4 ovarian): > 100 µM; TGI (OVCAR-5 ovarian): > 100 µM; TGI (OVCAR-8 ovarian): > 100 µM; TGI (PC-3 prostate): > 100 µM; TGI (RPMI-8226 leukemia): > 100 µM; TGI (RXF 393 renal): > 100 µM; TGI (SF-268 CNS): > 100 µM; TGI (SF-295 CNS): > 83.8 µM; TGI (SF-539 CNS): > 100 µM; TGI (SK-MEL-2 melanoma): > 100 µM; TGI (SK-MEL-28 melanoma): > 100 µM; TGI (SK-MEL-5 melanoma): > 100 µM; TGI (SK-OV-3 ovarian): > 100 µM; TGI (SN12C renal): > 100 µM; TGI (SNB-19 CNS): > 100 µM; TGI (SNB-75 CNS): > 100 µM; TGI (SW-620 colon): > 100 µM; TGI (T-47D breast): > 100 µM; TGI (TK-10 renal): 98.7 µM; TGI (U251 CNS): > 100 µM; TGI (UACC-257 melanoma): > 80.3 µM; TGI (UACC-62 melanoma): > 100 µM; TGI (UO-31 renal): > 100 µM
